Test results from patent publication US20120214760A1, “TREATMENT OF URINARY TRACT INFECTIONS WITH ANTIBACTERIAL AMINOGLYCOSIDE COMPOUNDS” (Achaogen, Inc., priority 2009, published 2012).
≈ marks a conversion by molar mass, not a printed value. Read-outs that look alike come from different tables or passages of the source.

How the values were obtained:
Type in all cases: cell-based
[1] = tested on: E. coli AECO040, AAC(6′)-I; assay: MIC, aminoglycoside resistant strain; conditions: Table 3
Experimental: (§1) Minimum inhibitory concentrations (MIC) were determined by reference Clinical and Laboratory Standards Institute (CLSI) broth microdilution methods per M7-A7 [2006]. Quality control ranges utilizing E. coli ATCC 25922, P. aeruginosa ATCC 27853 and S. aureus ATCC 29213, and interpretive criteria for comparator agents were as published in CLSI M100-S17 [2007]. Briefly, serial two-fold dilutions of the test compounds were prepared at 2× concentration in Mueller Hinton Broth. The compound dilutions were mixed in 96-well assay plates in a 1:1 ratio with bacterial inoculum. The inoculum was prepared by suspension of a colony from an agar plate that was prepared the previous day. Bacteria were suspended in sterile saline and added to each assay plate to obtain a final concentration of 5×10^5 CFU/mL. The plates were incubated at 35° C. for 20 hours in ambient air.
(§2) These MIC assays were conducted following the same protocol as set forth in Example 110. As shown, substituted sisomicin derivatives with groups other than methyl at the 6′-position have improved activity against strains expressing the AAC6′-modifying enzymes.

[2] = tested on: S. marcescens ASMA003, ANT(2″) + AAC(6′); assay: MIC, aminoglycoside resistant strain; conditions: Table 3
Experimental: as §1, §2

[3] = tested on: A. calcoaceticus AACA005, AAC(6′)-I; assay: MIC, aminoglycoside resistant strain; conditions: Table 3
Experimental: as §1, §2

[4] = tested on: P. aeruginosa ATCC 27853 (APAE001); assay: MIC, CLSI broth microdilution; conditions: Pseudomonas aeruginosa
Summary of the method: (§3)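 Broth microdilution per CLSI M7-A7, with serial two-fold compound dilutions in Mueller Hinton Broth mixed 1:1 with inoculum. Colonies from a previous-day agar plate were suspended in saline to a final 5×10^5 CFU/mL. Plates were incubated 20 hours at 35° C. in ambient air.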

[5] = tested on: E. coli ATCC 25922 (AECO001); assay: MIC, CLSI broth microdilution; conditions: for MIC: Escherichia coli; for MIC AECO001: Table 3
Summary of the method: as §3

[6] = ATCC27853, read-out: MIC APAE001, Table 1, APAE001 is ATCC27853
[7] = ATCC25922, read-out: MIC AECO001, Table 1, AECO001 is ATCC25922
[8] = ATCC27853, Table 2, read-out: MIC P. aeruginosa
[9] = ATCC25922, Table 2, read-out: MIC E. coli
[10] = Table 1, AECO001 is ATCC25922, read-out: MIC AECO001

SMILES	MIC AECO040 [1] [mg/L]	MIC ASMA003 [2] [mg/L]	MIC AACA005 [3] [mg/L]	MIC [4, 6] [mg/L]	MIC [5, 7] [mg/L]	MIC AECO001 ([5]; ATCC25922) [mg/L]	MIC [4, 8] [mg/L]	MIC [5, 9] [mg/L]	MIC [5, 10] [mg/L]
CN[C@@H]1[C@@H](O)[C@@H](O[C@@H]2[C@@H](O)[C@H](O[C@H]3OC(CNCC4CCNCC4)=CC[C@H]3N)[C@@H](N)C[C@H]2NC(=O)[C@@H](O)CCN)OC[C@]1(C)O [Example 12, 6′-(Methyl-piperidin-4-yl)-1-(4-amino-2(S)-hydroxy-butyryl)-sisomicin]	0.5 (≈ 0.774 µM)	4 (≈ 6.19 µM)	2 (≈ 3.1 µM)	1 to 16 (≈ 1.55 to 24.8 µM)	1 to 16 (≈ 1.55 to 24.8 µM)	1 (≈ 1.55 µM)			
CN[C@@H]1[C@@H](O)[C@@H](O[C@@H]2[C@@H](O)[C@H](O[C@H]3OC(CNCC4CC4)=CC[C@H]3N)[C@@H](N)C[C@H]2NC(=O)[C@@H](O)CN)OC[C@]1(C)O [Example 13, 6′-(Methyl-cyclopropyl)-1-(3-amino-2(S)-hydroxy-propionyl)-sisomicin]	0.125 (≈ 0.212 µM)	2 (≈ 3.4 µM)	2 (≈ 3.4 µM)	> 16	1 to 16 (≈ 1.7 to 27.2 µM)	1 (≈ 1.7 µM)			
CN[C@@H]1[C@@H](O)[C@@H](O[C@@H]2[C@@H](O)[C@H](O[C@H]3OC(CNCCO)=CC[C@H]3N)[C@@H](N)C[C@H]2NC(=O)[C@@H](O)CN)OC[C@]1(C)O [Example 16, 6′-(2-Hydroxy-ethyl)-1-(3-amino-2(S)-hydroxy-propionyl)-sisomicin]	1 (≈ 1.73 µM)	2 (≈ 3.46 µM)	2 (≈ 3.46 µM)			1 (≈ 1.73 µM)	1 to 16 (≈ 1.73 to 27.6 µM)	< 1	< 1
CN[C@@H]1[C@@H](O)[C@@H](O[C@@H]2[C@@H](O)[C@H](O[C@H]3OC(CN)=CC[C@H]3NC(=O)C(N)CCCN)[C@@H](N)C[C@H]2NC(=O)[C@@H](O)CCN)OC[C@]1(C)O (stereo partly drawn) [Example 99, 2′-(2,5-Diamino-pentoyl)-1-(4-amino-2(S)-hydroxy-butyryl)-sisomicin]				1 to 16 (≈ 1.51 to 24.1 µM)	1 to 16 (≈ 1.51 to 24.1 µM)				
CN[C@@H]1[C@@H](O)[C@@H](O[C@@H]2[C@@H](O)[C@H](O[C@H]3OC(CN)=CC[C@H]3NCC(O)CN)[C@@H](N)C[C@H]2NC(=O)[C@@H](O)CCN)OC[C@]1(C)O (stereo partly drawn) [Example 101, 2′-(2-Hydroxy-3-amino-propyl)-1-(4-amino-2(S)-hydroxy-butyryl)-sisomicin]				1 to 16 (≈ 1.61 to 25.7 µM)	< 1				
CN[C@@H]1[C@@H](O)[C@@H](O[C@@H]2[C@@H](O)[C@H](O[C@H]3OC(CN)=CC[C@H]3NCCCCN)[C@@H](N)C[C@H]2NC(=O)[C@@H](O)CCN)OC[C@]1(C)O [Example 102, 2′-(4-Amino-butyl)-1-(4-amino-2(S)-hydroxy-butyryl)-sisomicin]				1 to 16 (≈ 1.61 to 25.8 µM)	< 1				
CN[C@@H]1[C@@H](O)[C@@H](O[C@@H]2[C@@H](O)[C@H](O[C@H]3OC(CN)=CC[C@H]3NC(=N)N)[C@@H](N)C[C@H]2NC(=O)[C@@H](O)CCN)OC[C@]1(C)O [Example 103, 2′-Guanidinium-1-(4-amino-2(S)-hydroxy-butyryl)-sisomicin]							< 1	< 1	< 1
CN[C@@H]1[C@@H](O)[C@@H](O[C@@H]2[C@@H](O)[C@H](O[C@H]3OC(CN)=CC[C@H]3NC[C@H]3C[C@H](N)C3)[C@@H](N)C[C@H]2NC(=O)[C@@H](O)CCN)OC[C@]1(C)O [Example 104, 2′-(Methyl-trans-3-amino-cyclobutyl)-1-(4-amino-2(S)-hydroxy-butyryl)-sisomicin]				1 to 16 (≈ 1.58 to 25.3 µM)	< 1				
CN[C@@H]1[C@@H](O)[C@@H](O[C@@H]2[C@@H](O)[C@H](O[C@H]3OC(CNC(=N)N)=CC[C@H]3NC(=N)N)[C@@H](N)C[C@H]2N)OC[C@]1(C)O [Example 105, 6′,2′-bis-Guanidinium-sisomicin]				> 16	> 16				
CN[C@@H]1[C@@H](O)[C@@H](O[C@@H]2[C@@H](O)[C@H](O[C@H]3OC(CNCCO)=CC[C@H]3NC(=N)N)[C@@H](N)C[C@H]2N)OC[C@]1(C)O [Example 106, 6′-(2-Hydroxy-ethyl)-2′-guanidinium-sisomicin]				1 to 16 (≈ 1.87 to 30 µM)	< 1				
CN[C@@H]1[C@@H](O)[C@@H](O[C@@H]2[C@@H](O)[C@H](O[C@H]3OC(CNC[C@H]4C[C@H](N)C4)=CC[C@H]3NC(=N)N)[C@@H](N)C[C@H]2N)OC[C@]1(C)O [Example 107, 6′-(Methyl-trans-3-amino-cyclobutyl)-2′-guanidinium-sisomicin]				< 1	1 to 16 (≈ 1.75 to 27.9 µM)				
CNCC1=CC[C@@H](NC(=N)N)[C@@H](O[C@H]2[C@H](O)[C@@H](O[C@H]3OC[C@](C)(O)[C@H](NC)[C@H]3O)[C@H](N)C[C@@H]2N)O1 [Example 108, 6′-Methyl-2′-guanidinium-sisomicin]				1 to 16 (≈ 1.99 to 31.8 µM)	< 1				
CNCC1=CC[C@@H](N)[C@@H](O[C@H]2C(O)[C@@H](O[C@H]3OC[C@](C)(O)[C@H](NC)[C@H]3O)[C@H](N)C[C@@H]2N)O1 (stereo partly shown) [Mono-substituted Compound 1, reference compound]	> 64	1 (≈ 2.17 µM)	2 (≈ 4.33 µM)			1 (≈ 2.17 µM)			
CN[C@@H]1[C@@H](O)[C@@H](O[C@@H]2C(O)[C@H](O[C@H]3OC(CNCC4CC4)=CC[C@H]3N)[C@@H](N)C[C@H]2N)OC[C@]1(C)O (stereo partly shown) [Mono-substituted Compound 2, reference compound]	1 (≈ 1.99 µM)	0.5 (≈ 0.997 µM)	4 (≈ 7.97 µM)			1 (≈ 1.99 µM)			
CN[C@@H]1[C@@H](O)[C@@H](O[C@@H]2C(O)[C@H](O[C@H]3OC(CNCC4CCNCC4)=CC[C@H]3N)[C@@H](N)C[C@H]2N)OC[C@]1(C)O (stereo partly shown) [Mono-substituted Compound 3, reference compound]	0.25 (≈ 0.459 µM)	1 (≈ 1.84 µM)	0.5 (≈ 0.918 µM)			0.5 (≈ 0.918 µM)			
CN[C@@H]1[C@@H](O)[C@@H](O[C@@H]2C(O)[C@H](O[C@H]3OC(CNCCCN)=CC[C@H]3N)[C@@H](N)C[C@H]2N)OC[C@]1(C)O (stereo partly shown) [Mono-substituted Compound 4, reference compound]	16 (≈ 31.7 µM)	1 (≈ 1.98 µM)	1 (≈ 1.98 µM)			2 (≈ 3.96 µM)			
CN[C@@H]1C(O)[C@@H](O[C@@H]2[C@@H](O)[C@H](OC3OC(CN)=CC[C@H]3N)[C@@H](N)C[C@H]2NC(=O)[C@@H](O)CN)OC[C@]1(C)O (stereo partly shown) [Mono-substituted Compound 5, reference compound]	8 (≈ 15 µM)	2 (≈ 3.74 µM)	32 (≈ 59.9 µM)			0.5 (≈ 0.935 µM)			
CN[C@@H]1C(O)[C@@H](O[C@@H]2[C@@H](O)[C@H](OC3OC(CN)=CC[C@H]3N)[C@@H](N)C[C@H]2NC(=O)[C@@H](O)CCN)OC[C@]1(C)O (stereo partly shown) [Mono-substituted Compound 6, reference compound]	4 (≈ 7.29 µM)	4 (≈ 7.29 µM)	16 (≈ 29.2 µM)			0.5 (≈ 0.911 µM)			
CN[C@@H]1C(O)[C@@H](O[C@@H]2[C@@H](O)[C@H](OC3OC(CN)=CC[C@H]3N)[C@@H](N)C[C@H]2NC(=O)C2(O)CNC2)OC[C@]1(C)O (stereo partly shown) [Mono-substituted Compound 7, reference compound]	4 (≈ 7.32 µM)	16 (≈ 29.3 µM)	32 (≈ 58.5 µM)			1 (≈ 1.83 µM)			
CN[C@@H]1[C@@H](O)[C@@H](O[C@@H]2[C@@H](O)[C@H](O[C@H]3OC(CN)=CC[C@H]3N)[C@@H](N)C[C@H]2N)OC[C@]1(C)O [Sisomicin, reference compound]	32 (≈ 71.5 µM)	8 (≈ 17.9 µM)	32 (≈ 71.5 µM)			0.5 (≈ 1.12 µM)			
